In series [1] the test system is SARS-CoV-2. Nature of the series: microbe, parasite or virus in culture. In kind it is cell-based, SARS-CoV-2 (βCoV/KOR/KCDC03/2020).
Series [2] has as its target CBR2 (Homo sapiens, UniProt P34972). The conditions noted are these: reported (Pertwee 2008); cited from earlier work.
Series [3] deals with Vero cells. Nature of the series: Vero cell viability in the dose-response curve assay. Type of series: cell-based. How it is done:
Dose-response curve (DRC) analysis was performed according to a conventionally known method (Jeon, S., Ko, M., Lee, J., Choi, I., Byun, S Y, Park, S., Shum, D., and Kim, S. (2020). Identification of antiviral drug candidates against SARS-CoV-2 from FDA-approved drugs. Antimicrobial Agents and Chemotherapy). Briefly, the Vero cells were seeded at 1.2×10^4 cells per well in DMEM containing 1× Antibiotic-Antimycotic solution (Gibco) and 2% FBS in a 384-well, μClear plate (Greiner Bio-One) and maintained for 24 h. After that, the cells were treated twice with compounds in the concentration range of 0.05-100 μM. A 9-point dose-response curve (DRC) was generated. For viral infection, the plate was transferred to a BSL-3 isolation facility and SARS-CoV-2 was added to an MOI value of 0.0125. Next, the cells were fixed at 24 hpi with 4% PFA and measured using the immunofluorescence method Operetta (Perkin Elmer).
Images acquired using software within the Pasteur Institute in Korea were used to estimate the infection rate and cell number, and antiviral activity was normalized to negative (0.5% DMSO) and positive controls (mock). The dose-response curve (DRC) was measured using the sigmoidal dose-response model Y=Bottom+(Top−Bottom)/(1+(IC50/X)^Hillslope) using Prism or 7XLfit 4 software. Finally, IC50 values were measured for curves fitted to the normalized activity data set. […]

The conditions of series [4]: 0.3 mg/kg/day, report; cited from earlier work.
For series [5] the following is noted: 100 mg of CBD, healthy volunteers, reported; cited from earlier work.
The conditions of series [6]: cited from earlier work.
The mark [7] stands for this setting: Severe acute respiratory syndrome coronavirus 2, Vero; read-out: IC50, antiviral activity against SARS-CoV-2.

The structures appear in SMILES notation. Like-named read-outs stand apart in the source and are kept apart here.

Sequence of CBR2 (P34972 whole entry): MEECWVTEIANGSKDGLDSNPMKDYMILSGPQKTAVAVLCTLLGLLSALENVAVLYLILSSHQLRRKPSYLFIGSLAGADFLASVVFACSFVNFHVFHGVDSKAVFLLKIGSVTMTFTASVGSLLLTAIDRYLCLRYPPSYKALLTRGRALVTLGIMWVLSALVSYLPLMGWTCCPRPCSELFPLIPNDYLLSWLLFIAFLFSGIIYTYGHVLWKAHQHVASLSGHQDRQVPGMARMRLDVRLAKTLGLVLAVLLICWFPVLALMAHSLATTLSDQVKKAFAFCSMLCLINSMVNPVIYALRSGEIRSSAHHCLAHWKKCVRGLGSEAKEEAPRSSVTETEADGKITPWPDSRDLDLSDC

On to `CCCCCc1cc2c(c(O)c1C(=O)O)[C@@H]1C=C(C)CC[C@H]1C(C)(C)O2` [Compound T3, Δ9-Tetrahydrocannabinolic acid], for which the IC50 (commonly the concentration that gives 50% inhibition) in series [1] (setting [7]) came out at 13.2 µM.
On to `CCCCCc1cc(O)c2c(c1)OC(C)(C)[C@@H]1CCC(C)=C[C@@H]21` [Compound T4, Δ^9-Tetrahydrocannabinol], for which the IC50 in series [1] (setting [7]) was determined as 10.2 µM. Besides, in series [2], the “action at CBR2” value is “partial agonist”.
Regarding `CCCCCc1cc(O)c2c(c1)OC(C)(C)c1ccc(C)cc1-2` [Compound T7, Cannabinol], the IC50 in series [1] (setting [7]) was 11.1 µM.
In series [3] (at 12.50 μM), `C=C(C)[C@@H]1CCC(C)=C[C@H]1c1c(O)cc(CCCCC)cc1O` [Compound T22, Cannabidiol] showed a Vero cell viability of 97.46%. Besides, in series [3] (at 50 μM), the host cell viability result is reported as “decreased sharply”. Besides, the IC50 in series [1] (setting [7]) was determined as 7.91 µM. Besides, the inhibition (commonly the change of the read-out against control, counted positive when it falls) at 12.5 µM in series [1] (Severe acute respiratory syndrome coronavirus 2; at 12.50 μM, Vero cells) is 99.2%. For the same compound, the “effect in Crohn's disease” value in series [4] is given as “effective”. Further, the safety and tolerability result in series [5] is “safe and tolerable”. In series [6], the “dose reported to be safe” value is reported as “up to 60 mg per day”.
Take `C=C(C)[C@@H]1CCC(C)=C[C@H]1c1c(O)cc(CCCCC)c(C(=O)O)c1O` [Compound T23, Cannabidiolic acid]: in series [1] (setting [7]), the 50% inhibitory concentration (IC50) came out at 37.6 µM.
On to `CCN(CC)CCCC(C)Nc1ccnc2cc(Cl)ccc12` (stereo not drawn) [chloroquine, reference compound], for which the 50% inhibitory concentration (IC50) in series [1] (setting [7]) is 8.17 µM.
The same measure, in the same setting: in the case of `Cc1cccc(C)c1OCC(=O)N[C@@H](Cc1ccccc1)[C@@H](O)C[C@H](Cc1ccccc1)NC(=O)[C@H](C(C)C)N1CCCNC1=O` [lopinavir, reference compound] it was 9.78 µM.
As to `CCC(CC)COC(=O)[C@H](C)N[P@](=O)(OC[C@H]1O[C@@](C#N)(c2ccc3c(N)ncnn23)[C@H](O)[C@@H]1O)Oc1ccccc1` [remdesivir, reference compound], in series [1] (Severe acute respiratory syndrome coronavirus 2, Vero, read-out: IC50, antiviral activity against SARS-CoV-2), the IC50 worked out at 13.2 µM.

The values above are taken from patent US11707444B2, “Antiviral composition for SARS-CoV-2 containing cannabinoids as active ingredient” (priority 2020, dated 2023).
